Assay results as given in patent US20260021122A1, “CANNABINOIDS AND USES THEREOF IN TREATMENT OF A DISEASE” (TECHNION RESEARCH & DEVELOPMENT FOUNDATION LIMITED, priority 2022, published 2026).

Legend:
CSF-1 = assay: ELISA of secreted CSF-1 in media of A375 cells; format: cell-based, human; settings: 1.5 μg/ml CBG, 2 μg/ml 3704, 6 μg/ml CAN
Method: The media from B16F10 and A375 cell lines, or homogenates from B16F10 tumors, that were treated as indicated for 24 hours, were collected and the protein concentration of MCP-1, MIP-2, C-C Motif Chemokine Ligand 5 (CCL5), and CSF-1 were measured by Quantikine Mouse M-CSF Immunoassay solid-phase ELISA kit (R&D systems, Cat #MMC00) as described in the manufacture's protocol.

BM-MDSCs [1] = assay: BM-MDSCs treated with conditioned media from treated B16F10 cells: myeloid subpopulation frequencies and F4/80; format: cell-based, mice; settings: for reduction in the F4/80 MFI in Ly6C+ cells compared to DMSO: CM from treated B16F10 cells
Method: (§1) Bone-marrow-derived cells (BMDCs) were isolated from the fibula and tibia bones of healthy female WT C57BL/6 mice (8-12-week-old). Red blood cells were removed by using red blood lysis buffer (Biological industries, Cat #01-888-1B). Remaining cells were counted and 1×10^6 cells were seeded in complete RPMI (Sigma, Cat #R8758) containing 10% FBS (Sigma, Cat #F7524), 1% L-Glutamine (Sartorius, Cat #03-020-1B), 1% Penicillin/[…] (Sartorius, Cat #03-031-1B), 1% MEM-Eagle (Sartorius, Cat #01-340-1B), 2.5% HEPES (Sartorius, Cat #03-025-1B) and 1% sodium pyruvate (Sartorius, Cat #03-042-1B) and supplemented with 20 ng/ml of GM-CSF and IL-6 (R&D systems, 415-ML and 406-ML). Cells were incubated at 37° C. and 5% CO2 for 4 days and then treated with conditioned media, which was the media collected from B16F10 cells treated with either DMSO, CBG, or the high-CBG extract 3704 as indicated.
(§2) To differentiate the subpopulation of myeloid cells, BMDCs and myeloid cells from tumors were stained for the extracellular makers Ly6C-BV421 (BioLegend, Clone HK1.4; Cat #128032) or Ly6C-FITC (BioLegend, Cat #128096, Clone HK1.4), Ly6G-APC (BioLegend, Clone 1A8; Cat #127614), Ly6G-BV421 (BioLegend, Cat #127627, clone 1A8), PECy7-F4/80 (BioLegend, Clone BM8 Cat #123113), BV605-CD86 (BioLegend, Clone GL-1, Cat #105037), APC-CD206 (Biolegend, Clone CO68C2, Cat #141708) and BV711-CD45 (BioLegend, Clone 30F11, Cat #103147). Cells from tumors were also stained with PE-CD3+ (BioLegend, Clone 17A2, Cat #100206) to identify the overall T-cell population. To characterize the cells in the subpopulations, cells were fixed and permeabilized with the Intracellular Fixation and Permeabilization Buffer Set (eBioscience Cat #88-8824-00) and stained with FITC-iNOS (Thermo, Clone CXNFT, Cat #53592082) or FITC-Arginase-1 (Thermo, Clone AlexF5, Cat #53-3697-82). These cells were also stained with Fixable viability Dye (FVD)-eflour 780 (Thermo, Cat #65086514) to exclude dead cells.

BM-MDSCs [2] = assay: iNOS and Arg-1 expression by BM-MDSC subpopulations (flow cytometry, western blot); format: cell-based, mice
Method: as §1, §2
To analyze the two subpopulations of BM-MDSCs, the cells were stained with Ly6C-BV421 and Ly6G-APC and sorted into MO-MDSC or PMN-MDSC using the BD FACSAria III Cell Sorter instrument (BD Biosciences). Directly after sorting, the two separate subpopulations were co-cultured with CD8+ T-cells or lysed and further analyzed via western blot.
B16F10 cells, and sorted MO-MDSC and PMN-MDSC achieved as described, were lysed in RIPA buffer (Sigma, Cat #R0278) supplemented with Protease/Phosphatase Inhibitor Cocktail (Cell signaling, Cat #5872S) on ice for 20 minutes. Total protein concentrations were measured using the detergent-compatible protein assay (Bio-Rad, Cat #5000113 and 5000114) and equal amounts were loaded onto a 4%-20% gradient gel (Invitrogen, Cat #XPO4202) and semidry transferred into a nitrocellulose membrane (Bio-Rad, Cat #1704159). The membrane was incubated with the primary antibodies CSF-1 (Santa Cruz; Clone D-4; #sc-365779), iNOS (Abcam; Clone #ab15323) or GAPDH (Cell Signaling Technology, Cat #14C10). Secondary antibodies used in this study were HRP-conjugated and the membranes were developed with the ECL detection kit (Millipore, Cat #WBLUR).

[3] = CM of treated B16F10 vs CM of DMSO-treated B16F10, 24 hours, flow cytometry

With `CCCCCc1cc(O)c(C/C=C(\C)CCC=C(C)C)c(O)c1` [CBG, cannabigerol] the “CSF-1 secretion by A375 cells” value (CSF-1) was “reduced CSF-1 secretion”, the “overall percentage of monocytes (Ly6C+/Ly6G− cells)” value (BM-MDSCs [1]; BM-MDSCs treated 24 hours with CM from B16F10 treated with CBG 1.5 μg/ml or 3704 2 μg/ml) was “did not change” and the “PMN-MDSC frequencies (Ly6C+/Ly6G+)” value (BM-MDSCs [1]; CM from B16F10 treated with CBG 1.5 μg/ml or 3704 2 μg/ml) was “not affected by any treatment”. The “MO-MDSC (Ly6Chigh/Ly6G−) percentages” value (BM-MDSCs [1]; CM from B16F10 treated with CBG 1.5 μg/ml or 3704 2 μg/ml, compared to B16F10 treated with DMSO) was “significant decrease in MO-MDSC percentages”, the “reduction in the F4/80 MFI in Ly6C+ cells compared to DMSO” value (BM-MDSCs [1]; 24 hours) was “trend was apparent after 24 hours” and the “reduction in the F4/80 MFI in Ly6C+ cells compared to DMSO” value (BM-MDSCs [1]; 48 hours) was “statistically significant after 48 hours”. For the same compound, the “iNOS expression by western blot in sorted subsets” value (BM-MDSCs [2]; CM from treated B16F10 vs CM of DMSO-treated B16F10, sorted MO-MDSC and PMN-MDSC) was “reduction of iNOS expression specifically in MO-MDSCs”, the “iNOS expression by MO-MDSC” value (BM-MDSCs [2]; [3]) was “significantly decreased iNOS expression” and the “iNOS expression by PMN-MDSC” value (BM-MDSCs [2]; [3]) was “did not detect a significant decrease in iNOS expression”. For the same compound, the “Arg-1 expression in MO-MDSCs and PMN-MDSCs” value (BM-MDSCs [2]; CM of treated B16F10 vs CM of DMSO-treated B16F10, 24 hours, flow cytometry, neither subpopulation) was “did not detect a significant difference in Arg-1 expression” and the “iNOS expression in directly treated BM-MDSCs (each subpopulation)” value (BM-MDSCs [2]; medium from untreated B16F10 together with 2 g/ml CBG or 6 μg/ml 3704 for 24 hours, vs DMSO) was “did not detect any significant differences”.
